From patent US9901646B2, “Methods for induction of antigen-specific immune tolerance” (École Polytechnique Fédérale de Lausanne (EPFL), priority 2010, dated 2018)
Values belong to the molecule of their own block, whether it stands above or below them. Where no end group is shown, it is not given here. 8‑arm PEG = 8-arm polyethylene glycol (PEG) dendrimer, conjugated via pyridyldisulfide groups to cysteine thiols

What was measured:
[1] = test system: human erythrocytes (type A and B); assay: Binding of bacteria displaying peptide to cells, flow cytometry; details: peptide displayed on bacteria, 1 h at 4° C.
Protocol: Method: To characterize specificity, individual sequenced clones were analyzed using cytometry for binding toward human erythrocytes (type A and B), mouse erythrocytes, HEK293T cells and HUVECs. For binding assays, 10^6 mammalian cells were scanned on an AccuriA6 after co-incubation with 5×10^7 bacteria for 1 h at 4° C. followed by three washes in HFS (5% HSA, 2% FBS in PBS). The percentage of cells with green bacteria bound was calculated using FLOWJO Software.

human erythrocytes = assay: Erythrocyte binding of APC-peptide conjugates by flow cytometry; details: 1 μM APC-peptide conjugate, 37 C, 45 min
Protocol: Peptides were ordered and custom-synthesized via standard fmoc solid-phase peptide synthesis from PolyPeptide Group (Strasbourg, France). 10 equivalents of peptide dissolved in 3 M guanidine-HCl were added to 2 mg/mL maleimide-activated APC (InnovaBiosciences, Cambridge, UK) in PBS. Following a 4 h incubation at 4° C., the reaction was desalted on a 2 mL ZEBA Desalting Column (Thermo Scientific) and stored at 4° C.
Freshly isolated human blood was dissolved 100-fold into PBS supplemented with 20 mg/mL BSA. 5×10^5 erythrocytes were added to 150 μL of 1 μM APC-peptide conjugate and incubated at 37 C for 45 min. Cells were washed extensively in PBS+20 mg/mL BSA, and analyzed for APC fluorescence on a CyAn ADP Flow cytometer (Beckman Coulter).

[2] = mouse, in vivo, iv, 150 ug
Protocol: The Swiss Vaud Veterinary Office previously approved all animal procedures. While under anesthesia with ketamine/xylasine, the mouse tail was warmed in 42° C. water and 150 μg of protein was injected in a 100 μL volume directly into the tail vein. Care was taken to ensure mice were kept at 37° C. while under anesthesia. Blood was drawn by a small scalpel incision on the base of the tail, and diluted 10-fold in PBSA-5, 10 mM EDTA, and stored at −20° C. until further analysis. Blood samples were analyzed for MBP concentration by sandwich ELISA. In brief, monoclonal mouse anti-MBP was used as the capture antibody, polyclonal rabbit anti-MBP as the primary antibody, and goat anti-rabbit-HRP as the secondary antibody. The data were analyzed in PRISM4 using standard pharmacokinetic compartmental analysis, using Eq. 1 and Eq. 2 A=A0e^−Kt Equation 1: Standard one-compartment model
where A is the amount of free drug in the body at time t and A0 is the initial amount of drug at time zero. A=ae^−at+be^−βt Equation 2: Standard two-compartment model
where A is the amount of free drug in the central compartment at time t.

glycophorin-A (GYPA) = biological target: T1, glycophorin-A (GYPA) (Mus musculus, UniProt P14220); assay: Affinity pull-down with biotinylated ERY1 peptide and photoactivatable crosslinker, Western blot; format: binding; details: whole erythrocytes, UV crosslinking, streptavidin and anti-GYPA Western blot
T1 construct: GYPA is naturally expressed and presented as part of a complex comprised of several membrane and cytoskeletal proteins; endogenous in cells; host or cells: whole mouse erythrocytes
Protocol: Method: The ERY1 (H2N-WMVLPWLPGTLDGGSGCRG-CONH2) (SEQ ID NO:19) and mismatch (H2N-PLLTVGMDLWPWGGSGCRG-CONH2) (SEQ ID NO:20) peptides were synthesized using standard solid-phase f-moc chemistry on TGR resin. The peptide was cleaved from the resin in 95% tri-fluoroacetic acid, 2.5% ethanedithiol, 2.5% water, and precipitated in ice-cold diethyl ether. Purification was conducted on a Waters preparative HPLC-MS using a C18 reverse phase column.
In brief, peptides were solubilized in PBS/DMF and reacted with 1.05 equivalents of Mts-atf-biotin overnight at 4° C. Following clarification of the reaction by centrifugation, biotinylated peptide was incubated with erythrocytes at in PBSA-50 for 1 h at 37° C., cells were washed twice in fresh PBS, and were UV irradiated at 365 nm for 8 min at room temperature. Cells were lysed by sonication and the lysate was purified using streptavidin-coated magnetic beads (Invitrogen). The eluate was run on an SDS-PAGE and transferred to a PVDF membrane, and immunoblotted with streptavidin-HRP (R&D Systems) or anti-mouse GYPA.

circulating erythrocytes = assay: 8-arm PEG constructs binding to circulating erythrocytes after intravenous injection, flow cytometry; format: in vivo, mouse; details: flow cytometry
Text: FIG. 17 presents experimental results depicting erythrocyte cell-surface half-life of 8-arm PEG-ERY1 (filled circles) and 8-arm PEG-MIS (empty boxes), determined by flow cytometry.

[3] = test system: mouse erythrocytes (glycophorin-A on the erythrocyte surface); assay: Binding of OVA conjugates to erythrocytes in vitro, flow cytometry, equilibrium binding
Text: To obtain strong and specific biophysical binding of an antigen to erythrocytes, we used a synthetic 12 amino acid peptide (ERY1) that we discovered by phage display to specifically bind to mouse glycophorin-A (Kontos and Hubbell, 2010). In this investigation, the model antigen OVA was used with a transgenic mouse strain (OT-I) whose CD8^+ T cell population expresses the T cell receptor specific for the MHC I immunodominant OVA peptide SIINFEKL (SEQ ID NO:3). The ERY1 peptide was chemically conjugated to OVA to create an OVA variant (ERY1-OVA) that binds mouse erythrocytes with high affinity and specificity (FIG. 8a). High-resolution confocal microscopy confirmed earlier observations concerning ERY1 binding (Kontos and Hubbell, 2010), namely localization to the cell membrane equatorial periphery, with no intracellular translocation of the ERY1-conjugated protein.

binding to human erythrocytes as conjugates of APC (human erythrocytes): bound to human erythrocytes
Molecule: GQSGQTYFCTPTLLGQYCSVGSSGGS (Erythrocyte Binding Peptide) [ERY64]
binding to human erythrocytes, specificity as compared to 293T cells and HUVECs [1]: bound specifically to human erythrocytes

Molecule: maltose binding protein [wild-type MBP]
half-life [2]: 55.2 min
α half life [2]: 24.6 min
β half life [2]: 66.6 min

Molecule: GQSGQSVWYSSRGNPLRCTGGSSGGS (Erythrocyte Binding Peptide) [ERY162]
binding to human erythrocytes, specificity as compared to 293T cells and HUVECs [1]: bound specifically to human erythrocytes

Molecule: GQSGQYICTSAGFGEYCFIDGSSGGS (Erythrocyte Binding Peptide) [ERY59]
binding to human erythrocytes, specificity as compared to 293T cells and HUVECs [1]: bound specifically to human erythrocytes

molecular target on the erythrocyte membrane / conjugation to erythrocyte proteins (glycophorin-A (GYPA)): glycophorin-A (GYPA)
Molecule: WMVLPWLPGTLD (not fully specified (C-terminus)) [ERY1, synthesized as H2N-…-CONH2]

binding to human erythrocytes as conjugates of APC (human erythrocytes): bound to human erythrocytes
Molecule: GQSGQFCTVIYNTYTCVPSSGSSGGS (Erythrocyte Binding Peptide) [ERY141]
binding to human erythrocytes, specificity as compared to 293T cells and HUVECs [1]: bound specifically to human erythrocytes

Molecule: GQSGQPNSRWIYMTPLSPGIYRGSSGGS (Erythrocyte Binding Peptide) [ERY19]
binding to human erythrocytes, specificity as compared to 293T cells and HUVECs [1]: bound specifically to human erythrocytes

binding to circulating erythrocytes upon intravenous injection (circulating erythrocytes): not
Molecule: 8-arm PEG-MIS: 8-arm PEG conjugate harboring the non-specific MIS peptide (H-PLLTVGMDLWPWGGSGC(8‑arm PEG)RG-NH2; also: 8-arm PEG conjugate (multivalent), linkage to PEG not given here) [reference compound]

binding to human erythrocytes as conjugates of APC (human erythrocytes): bound to human erythrocytes
Molecule: GQSGHWHCQGPFANWVGSSGGS (Erythrocyte Binding Peptide) [ERY123]
binding to human erythrocytes, specificity as compared to 293T cells and HUVECs [1]: bound specifically to human erythrocytes

Molecule: PLLTVGMDLWPW (Control peptide) [mismatch peptide, same amino acid residues as ERY1, scrambled, reference compound]
molecular target on the erythrocyte membrane / conjugation to erythrocyte proteins (glycophorin-A (GYPA)): failed to conjugate to any erythrocyte proteins

binding to erythrocytes (flow cytometry) [3]: did not display any measureable affinity
B1: OVA conjugated with only the crosslinking molecule: OVA carrying only the SMCC crosslinker (conjugate)
chain: GSIGAASMEFCFDVFKELKVHHANENIFYCPIAIMSALAMVYLGAKDSTRTQINKVVRFDKLPGFGDSIEAQCGTSVNVHSSLRDILNQITKPNDVYSFSLASRLYAEERYPILPEYLQCVKELYRGGLEPINFQTAADQARELINSWVESQTNGIIRNVLQPSSVDSQTAMVLVNAIVFKGLWEKAFKDEDTQAMPFRVTEQESKPVQMMYQIGLFRVASMASEKMKILELPFASGTMSMLVLLPDEVSGLEQLESIINFEKLTEWTSSNVMEERKIKVYLPRMKMEEKYNLTSVLMAMGITDVFSSSANLSGISSAESLKISQAVHAAHAEINEAGREVVGSAEAGVDAASVSEEFRADHPFLFCIKHIATNAVLFFGRCVSP
